Test results taken from the NIST ThermoML archive (doi:10.1016/j.jct.2016.07.051).
Numbers after ± are expanded uncertainties.

Assay: mn = molality of the nth substance listed, in mol/kg
Details: 100 kPa, Liquid; for speed of sound: Frequency=3 MHz, Sing-around technique in a fixed-path interferometer; for mass density: Vibrating tube method

O=C[C@H](O)[C@@H](O)[C@H](O)[C@H](O)CO [D-glucose] + O
Details	mass density [kg/m3]	speed of sound [m/s]
293.15 K, m1 = 0.05008	1001.67 ± 0.46	–
293.15 K, m1 = 0.0698	1003.02 ± 0.46	1487 ± 1.9
293.15 K, m1 = 0.09118	1004.47 ± 0.46	1488.3 ± 1.9
293.15 K, m1 = 0.1108	1005.8 ± 0.46	1489.5 ± 1.9
293.15 K, m1 = 0.1312	–	1490.8 ± 1.9
298.15 K, m1 = 0.05008	1000.44 ± 0.46	–
298.15 K, m1 = 0.0698	1001.76 ± 0.46	1501.4 ± 1.9
298.15 K, m1 = 0.09118	1003.17 ± 0.46	1502.7 ± 1.9
298.15 K, m1 = 0.1108	1004.47 ± 0.46	1504 ± 1.9
298.15 K, m1 = 0.1312	1005.8 ± 0.46	1505.3 ± 1.9
303.15 K, m1 = 0.05008	999.038 ± 0.45	1512.2 ± 1.9
303.15 K, m1 = 0.0698	1000.35 ± 0.45	1513.4 ± 1.9
303.15 K, m1 = 0.09118	1001.76 ± 0.46	1514.7 ± 1.9
303.15 K, m1 = 0.1108	1003.05 ± 0.46	1515.9 ± 1.9
303.15 K, m1 = 0.1312	1004.38 ± 0.46	1517.2 ± 1.9
303.15 K, m1 = 0.1499	1005.58 ± 0.46	1518.3 ± 1.9
308.15 K, m1 = 0.05008	997.396 ± 0.45	1522.8 ± 1.9
308.15 K, m1 = 0.0698	998.701 ± 0.45	1524 ± 1.9
308.15 K, m1 = 0.09118	1000.11 ± 0.45	1525.4 ± 1.9
308.15 K, m1 = 0.1108	1001.39 ± 0.45	1526.6 ± 1.9
308.15 K, m1 = 0.1312	1002.71 ± 0.46	–
308.15 K, m1 = 0.1499	1003.91 ± 0.46	1529 ± 1.9
313.15 K, m1 = 0.05008	995.571 ± 0.45	1531.6 ± 1.9
313.15 K, m1 = 0.0698	996.873 ± 0.45	1532.8 ± 1.9
313.15 K, m1 = 0.09118	998.274 ± 0.45	1534 ± 1.9
313.15 K, m1 = 0.1108	999.553 ± 0.45	1535.1 ± 1.9
313.15 K, m1 = 0.1312	1000.87 ± 0.45	1536.2 ± 1.9
313.15 K, m1 = 0.1499	1002.06 ± 0.45	1537.3 ± 1.9
318.15 K, m1 = 0.05008	993.55 ± 0.45	–
318.15 K, m1 = 0.0698	994.845 ± 0.45	1540.2 ± 1.9
318.15 K, m1 = 0.09118	996.24 ± 0.45	1541.4 ± 1.9
318.15 K, m1 = 0.1108	–	1542.4 ± 1.9
318.15 K, m1 = 0.1312	998.817 ± 0.45	–
318.15 K, m1 = 0.1499	1000 ± 0.45	1544.6 ± 1.9
323.15 K, m1 = 0.05008	991.349 ± 0.45	1545.3 ± 1.9
323.15 K, m1 = 0.0698	992.639 ± 0.45	1546.3 ± 1.9
323.15 K, m1 = 0.09118	994.028 ± 0.45	1547.4 ± 1.9
323.15 K, m1 = 0.1108	995.295 ± 0.45	1548.5 ± 1.9
323.15 K, m1 = 0.1312	996.6 ± 0.45	1549.5 ± 1.9
323.15 K, m1 = 0.1499	997.788 ± 0.45	1550.5 ± 1.9

CCC[NH3+].O=C[O-] [propylammonium formate] + O
Details	mass density, m1 = 0.1 [kg/m3]	mass density, m1 = 0.2 [kg/m3]	mass density, m1 = 0.3 [kg/m3]	mass density, m1 = 0.4 [kg/m3]	speed of sound, m1 = 0.1 [m/s]	speed of sound, m1 = 0.2 [m/s]	speed of sound, m1 = 0.3 [m/s]	speed of sound, m1 = 0.4 [m/s]
293.15 K	999.222 ± 0.46	1000.07 ± 0.46	1000.91 ± 0.46	1001.81 ± 0.46	1492.2 ± 1.9	1500.4 ± 1.9	1508.2 ± 1.9	1516.9 ± 1.9
298.15 K	997.851 ± 0.45	998.673 ± 0.45	999.689 ± 0.46	1000.56 ± 0.46	1505.7 ± 1.9	1513.4 ± 1.9	1520.8 ± 1.9	1528.9 ± 1.9
303.15 K	996.637 ± 0.46	997.448 ± 0.46	998.238 ± 0.45	999.087 ± 0.46	1517.5 ± 1.9	1524.9 ± 1.9	1531.8 ± 1.9	1539.4 ± 1.9
308.15 K	994.884 ± 0.45	995.676 ± 0.45	996.581 ± 0.45	997.41 ± 0.45	1527.8 ± 1.9	1534.7 ± 1.9	1541.3 ± 1.9	1548.4 ± 1.9
313.15 K	993.191 ± 0.45	993.97 ± 0.45	994.725 ± 0.45	995.542 ± 0.45	1536.4 ± 1.9	1543 ± 1.9	1549.3 ± 1.9	1555.9 ± 1.9
318.15 K	990.986 ± 0.45	991.749 ± 0.45	992.694 ± 0.45	993.502 ± 0.45	1543.6 ± 1.9	1549.9 ± 1.9	1555.9 ± 1.9	1562 ± 1.9
323.15 K	988.793 ± 0.45	989.611 ± 0.45	990.498 ± 0.45	991.295 ± 0.45	1550.5 ± 1.9	1555.4 ± 1.9	1561.1 ± 1.9	1566.9 ± 1.9

O [water] + CCC[NH3+].O=C[O-]
m2 = 0
Details	mass density [kg/m3]	speed of sound [m/s]
313.15 K	–	1528.9 ± 1.9
318.15 K	–	1536.6 ± 1.9
323.15 K	988.031 ± 0.45	–

O [water] + O=C[C@H](O)[C@@H](O)[C@H](O)[C@H](O)CO
m2 = 0
Details	mass density [kg/m3]	speed of sound [m/s]
313.15 K	–	1528.9 ± 1.9
318.15 K	–	1536.6 ± 1.9
323.15 K	988.031 ± 0.45	–
